Earlier results, collected in patent US20230167447A1, “Compositions for FNIP1/FNIP2 Gene Modulation and Methods Thereof” (Genetic Intelligence, Inc, priority 2021, published 2023).

Test system: ALS patients

## CC1=NN(c2ccccc2)C(=O)C1 [Edaravone, edaravone]
  decline in physical function in ALS patients: slows the decline in physical function
  subset of patients for which effective: around 7%
